Patent US11926610B1, “9-(2-hydroxypyridin-3-yl)10-(2-hydroxyethyl)-3,6-diphenyl-3,4,6,7,9,10-hexahydroacridine1,8(2H,5H)-dione as an antimicrobial compound” (KING FAISAL UNIVERSITY, priority 2023, dated 2024)

Legend:
Type in all cases: cell-based
Conditions in all cases: after 10, 20, 40 and 60 minutes at all dilutions 1:100, 1:200, 1:400, 1:800
Pseudomonas aeruginosa = assay: Antimicrobial screening by agar dilution, Pseudomonas aeruginosa
Protocol: (§1) The antibacterial properties of the synthesized compound 9-(2-hydroxypyridin-3-yl)-10-(2-hydroxyethyl)-3,6-diphenyl-3,4,6,7,9,10-hexahydroacridine1,8(2H,5H)-dione were studied by the method of agar dilution. Test solutions of each compound was prepared in concentration of 1% using dimethylformamide as a solvent then they are diluted in physiological solution to obtain the final experimental dilutions 1:100, 1:200, 1:400, 1:800. The effect of these substances are compared with furacillin in a controllable study. The testing microbes used were gram positive bacteria Staphylococcus aureus, gram negative bacteria Pseudomonas aeruginosa and Escherichia coli and Candida albicans fungus. The experiments used for this survey were meat-pentonlu agar (EPA) for cultivation of bacteria and Saburo environment for the fungus. Each experiment used 1 mL of test solution on each plate […]. Two drops of emulsified with microbes feel were added. All experimental samples were taken from the agar after 10, 20, 40, 60 minutes in the environment on the basis of Patrk planted. The bacteria were cultivated at a temperature of 37° C. for 1 day and the mushroom was kept in a thermostat for 2 hours at a temperature of 28° C. Then results were checked.

Candida albicans = assay: Antimicrobial screening by agar dilution, Candida albicans
Protocol: as §1

Staphylococcus aureus = assay: Antimicrobial screening by agar dilution, Staphylococcus aureus
Protocol: as §1

Escherichia coli = assay: Antimicrobial screening by agar dilution, Escherichia coli
Protocol: as §1

Measured: inhibition activity (in words)

O=C1CC(c2ccccc2)CC2=C1C(c1cccnc1O)C1=C(CC(c3ccccc3)CC1=O)N2CCO (stereo not shown) [9-(2-hydroxypyridin-3-yl)-10-(2-hydroxyethyl)-3,6-diphenyl-3,4,6,7,9,10-hexahydroacridine1,8(2H,5H)-dione]
highest inhibition activity: all assays above
